In US20100204119A1, “4-AMINO-5-OXO-7,8-DIHYDROPYRIMIDO[5,4-F][1,4]OXAZEPIN-6(5H)-YL PHENYL DERIVATIVES” (Pfizer Inc, priority 2009, published 2010):

Target: T1, Human full-length diacylglycerol:acylCoA acyltransferase 1 (DGAT-1) (Homo sapiens, UniProt O75907)
T1 sequence (O75907 1-488): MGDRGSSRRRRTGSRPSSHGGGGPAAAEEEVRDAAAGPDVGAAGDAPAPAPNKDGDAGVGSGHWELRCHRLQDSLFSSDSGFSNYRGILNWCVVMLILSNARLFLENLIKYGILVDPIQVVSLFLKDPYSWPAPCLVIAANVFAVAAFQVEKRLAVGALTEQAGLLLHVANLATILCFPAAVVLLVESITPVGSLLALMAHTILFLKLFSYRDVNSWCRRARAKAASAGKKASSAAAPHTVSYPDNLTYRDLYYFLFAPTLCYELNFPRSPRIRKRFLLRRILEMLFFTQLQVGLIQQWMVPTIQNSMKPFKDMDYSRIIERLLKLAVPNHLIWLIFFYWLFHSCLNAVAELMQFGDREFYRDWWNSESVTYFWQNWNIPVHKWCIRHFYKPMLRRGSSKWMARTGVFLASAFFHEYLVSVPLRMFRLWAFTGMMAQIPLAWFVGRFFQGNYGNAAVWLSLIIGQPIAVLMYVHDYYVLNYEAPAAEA
Assay: In vitro assay for inhibition of DGAT-1 activity (DGAT 1 Reduced Microsome Multidose Assay)
Details: average where n > 1

[1] = Trial 2 Human IC50, Trial 2: as Trial 4 except eleven concentrations of inhibitor instead of eight
[2] = Trial 3 Human IC50, Trial 3: as Trial 2 except compounds serially diluted in a different laboratory
[3] = Trial 1 Human IC50, Trial 1: as Trial 4 except microsomes at 25 μg/mL instead of 5 μg/mL
[4] = Trial 4 Human IC50, Trial 4: eight concentrations of inhibitor, microsomes 5 μg/mL

Protocol: Human full-length diacylglycerol:acylCoA acyltransferase 1 (DGAT-1) was expressed in Sf9 insect cells which are then lysed and a crude membrane fraction (105,000×g pellet) was prepared.
Inhibitors in DMSO were pre-incubated with membranes before initiating the DGAT-1 reaction by the addition of decanoylCoA. […] The inhibitors were present at a range of eight concentrations to generate an apparent IC50 for each compound. […] Specifically, the eight concentrations used were 3 μM, 1 μM, 300 nM, 100 nM, 30 nM, 10 nM, 3 nM and 1 nM.
The reactions were allowed to proceed for 1.5 hours at room temperature and then terminated by the addition of 20 μl of EDTA (40 mM). Reaction mixture is then mixed by trituration with 30 μl of Microscint™-E (Perkin Elmer). […] Four separate trials were conducted. The method of analysis of Trial 1 was the same as Trial 4 (described above) except microsomes were utilized at 25 μg/mL instead of 5 μg/mL. The method of analysis of Trial 2 was the same as Trial 4 (described above) except eleven (11) concentrations of inhibitor were employed instead of eight (8). The method of analysis of Trial 3 was the same as Trial 2 except the compounds were serially diluted in a different laboratory.
Where this DGAT-1 inhibition assay was performed on a compound more than once, an average is provided for that compound.

| Compound | IC50 [1] [µM] | IC50 [2] [µM] | IC50 [3] [µM] | other results |
| --- | --- | --- | --- | --- |
| N#CC1CCCN(C(=O)C[C@H]2CC[C@H](c3ccc(N4CCOc5ncnc(N)c5C4=O)cc3)CC2)C1 (stereo partly drawn) [Example 6AO] |  |  | 0.04 |  |
| CN(CC1CCOCC1)C(=O)C[C@H]1CC[C@H](c2ccc(N3CCOc4ncnc(N)c4C3=O)cc2)CC1 [Example 6D] |  |  | 0.103 |  |
| CC(c1cccnc1)N(C)C(=O)C[C@H]1CC[C@H](c2ccc(N3CCOc4ncnc(N)c4C3=O)cc2)CC1 (stereo partly drawn) [Example 6AQ] |  |  | 0.0875 |  |
| CCCCCN(CCO)C(=O)C[C@H]1CC[C@H](c2ccc(N3CCOc4ncnc(N)c4C3=O)cc2)CC1 [Example 6V] |  |  | 0.0307 |  |
| CC(C)c1ccc(N2CCOc3ncnc(N)c3C2=O)cc1 [Example 1H] | 0.0171 | 0.0263 |  |  |
| CN(CCc1ccccn1)C(=O)C[C@H]1CC[C@H](c2ccc(N3CCOc4ncnc(N)c4C3=O)cc2)CC1 [Example 6W] |  |  | 0.0777 |  |
| C[C@@H]1CN(c2ccc(C3(C(N)=O)CCCC3)cc2)C(=O)c2c(N)ncnc2O1 [Example 1AF, 1-{4-[(8R)-4-amino-8-methyl-5-oxo-7,8-dihydropyrimido[5,4-f][1,4]oxazepin-6(5H)-yl]phenyl}cyclopentanecarboxamide] |  |  |  | IC50 [4]: 0.117 µM |
| CN(Cc1ccc(F)cc1)C(=O)C[C@H]1CC[C@H](c2ccc(N3CCOc4ncnc(N)c4C3=O)cc2)CC1 [Example 6AK] |  |  | 0.0181 |  |
| COCC1CCN(C(=O)C[C@H]2CC[C@H](c3ccc(N4CCOc5ncnc(N)c5C4=O)cc3)CC2)CC1 [Example 6I] |  |  | 0.0578 |  |
| Nc1ncnc2c1C(=O)N(c1ccc([C@H]3CC[C@H](CC(=O)N4CCC[C@@H](O)C4)CC3)cc1)CCO2 [Example 6O] |  |  | 0.162 |  |
| Nc1ncnc2c1C(=O)N(c1ccc([C@H]3CC[C@H](CC(=O)N4CCNC(=O)C4)CC3)cc1)CCO2 [Example 6AX] |  |  | 0.123 |  |
| C[C@@H]1CN(c2ccc(C3(C(N)=O)CCCCC3)cc2)C(=O)c2c(N)ncnc2O1 [Example 1AE, 1-{4-[(8R)-4-amino-8-methyl-5-oxo-7,8-dihydropyrimido[5,4-f][1,4]oxazepin-6(5H)-yl]phenyl}cyclohexanecarboxamide] |  |  |  | IC50 [4]: 0.0824 µM |
| CC(O)c1ccc(N2C[C@@H](C)Oc3ncnc(N)c3C2=O)cc1 (stereo partly drawn) [Example 1W] |  |  |  | IC50 [4]: 0.146 µM |
| CC1C(=O)NCCN1C(=O)C[C@H]1CC[C@H](c2ccc(N3CCOc4ncnc(N)c4C3=O)cc2)CC1 (stereo partly drawn) [Example 6BB] |  |  | 0.147 |  |
| CCOC1CCN(C(=O)C[C@H]2CC[C@H](c3ccc(N4CCOc5ncnc(N)c5C4=O)cc3)CC2)CC1 [Example 6AB] |  |  | 0.0547 |  |
| CC(C)(O)CC[C@H]1CC[C@H](c2ccc(N3CCOc4ncnc(N)c4C3=O)cc2)CC1 [Example 1A-1] |  |  | 0.104 |  |
| CCN(CCCCO)C(=O)C[C@H]1CC[C@H](c2ccc(N3CCOc4ncnc(N)c4C3=O)cc2)CC1 [Example 6N] |  |  | 0.0375 |  |
| CC1(CO)CCCN(C(=O)C[C@H]2CC[C@H](c3ccc(N4CCOc5ncnc(N)c5C4=O)cc3)CC2)C1 (stereo partly drawn) [Example 6AN] |  |  | 0.0713 |  |

Continued, in another order:

| IC50 [1] [µM] | IC50 [2] [µM] | IC50 [3] [µM] | Compound | other results |
| --- | --- | --- | --- | --- |
| 0.123 | 0.217 |  | CS(=O)(=O)CC(=O)N1CCC(c2ccc(N3CCOc4ncnc(N)c4C3=O)cc2)CC1 [Example 7T] |  |
| 0.0982 | 0.267 |  | C[C@H](O)CC(=O)N1CCC(c2ccc(N3CCOc4ncnc(N)c4C3=O)cc2)CC1 [Example 7D] |  |
| 0.0412 | 0.0923 |  | Nc1ncnc2c1C(=O)N(c1ccc(C3CCN(C(=O)CC4CCCC4)CC3)cc1)CCO2 [Example 7AE] |  |
| 0.0551 | 0.03 |  | CC(C)(C)OC(=O)N1CCC(c2ccc(N3CCOc4ncnc(N)c4C3=O)cc2)CC1 [Example 7B] |  |
| 0.119 | 0.234 |  | Nc1ncnc2c1C(=O)N(c1ccc(C3CCN(C(=O)Cc4ncccn4)CC3)cc1)CCO2 [Example 7N] |  |
| 0.138 | 0.374 |  | Nc1ncnc2c1C(=O)N(c1ccc(C3CCN(C(=O)CC4CCOCC4)CC3)cc1)CCO2 [Example 7O] |  |
| 0.105 | 0.134 |  | Nc1ncnc2c1C(=O)N(c1ccc(C3CCN(C(=O)C4CCCOC4)CC3)cc1)CCO2 (stereo not drawn) [Example 7Z] |  |
